Numbers after ± are expanded uncertainties.
How the values were obtained:
[1] = refractive index (Na D-line) (dimensionless); conditions: 293.15 K; 101.33 kPa; Liquid; Standard Abbe refractometry
[2] = Liquid; for mass density: 298.15 K, 101.33 kPa; for vapor or sublimation pressure: Ebulliometric method (Recirculating still)

SMILES: CC(C)CC(C)(C)C [2,2,4-trimethylpentane]
- refractive index [1]: 1.38894 ± 0.00045
- mass density [2]: 687.8 ± 1.3 kg/m3
- vapor or sublimation pressure ([2]; 318.13 K): 15.85 ± 0.11 kPa
- vapor or sublimation pressure ([2]; 328.15 K): 23.68 ± 0.14 kPa
- vapor or sublimation pressure ([2]; 338.15 K): 34.4 ± 0.19 kPa

SMILES: CCC(C)(C)OC [2-methoxy-2-methylbutane]
- refractive index [1]: 1.38614 ± 0.00041
- mass density [2]: 765.85 ± 0.66 kg/m3
- vapor or sublimation pressure ([2]; 318.13 K): 23.96 ± 0.14 kPa
- vapor or sublimation pressure ([2]; 328.15 K): 35.45 ± 0.19 kPa
- vapor or sublimation pressure ([2]; 328.2 K): 35.45 ± 0.19 kPa
- vapor or sublimation pressure ([2]; 338.15 K): 51.05 ± 0.25 kPa
- vapor or sublimation pressure ([2]; 338.28 K): 51.05 ± 0.25 kPa

SMILES: CC(C)(C)O [2-methylpropan-2-ol]
- mass density [2]: 780.44 ± 0.64 kg/m3
- vapor or sublimation pressure ([2]; 318.13 K): 17.95 ± 0.12 kPa
- vapor or sublimation pressure ([2]; 328.2 K): 30.35 ± 0.17 kPa
- vapor or sublimation pressure ([2]; 338.28 K): 48.93 ± 0.24 kPa
